Test results taken from patent publication US7915268B2, “8-substituted 2-(benzimidazolyl)purine derivatives for immunosuppression” (Wyeth LLC, priority 2006, dated 2011).

Molecular target: T1, Jak3 (Homo sapiens, UniProt P52333)
T1 construct: catalytic domain of Jak3 (508aa to 1124aa); made in house; host or cells: Sf9 insect cells (baculovirus, pFastBac 1)
T1 sequence (P52333 508-1124): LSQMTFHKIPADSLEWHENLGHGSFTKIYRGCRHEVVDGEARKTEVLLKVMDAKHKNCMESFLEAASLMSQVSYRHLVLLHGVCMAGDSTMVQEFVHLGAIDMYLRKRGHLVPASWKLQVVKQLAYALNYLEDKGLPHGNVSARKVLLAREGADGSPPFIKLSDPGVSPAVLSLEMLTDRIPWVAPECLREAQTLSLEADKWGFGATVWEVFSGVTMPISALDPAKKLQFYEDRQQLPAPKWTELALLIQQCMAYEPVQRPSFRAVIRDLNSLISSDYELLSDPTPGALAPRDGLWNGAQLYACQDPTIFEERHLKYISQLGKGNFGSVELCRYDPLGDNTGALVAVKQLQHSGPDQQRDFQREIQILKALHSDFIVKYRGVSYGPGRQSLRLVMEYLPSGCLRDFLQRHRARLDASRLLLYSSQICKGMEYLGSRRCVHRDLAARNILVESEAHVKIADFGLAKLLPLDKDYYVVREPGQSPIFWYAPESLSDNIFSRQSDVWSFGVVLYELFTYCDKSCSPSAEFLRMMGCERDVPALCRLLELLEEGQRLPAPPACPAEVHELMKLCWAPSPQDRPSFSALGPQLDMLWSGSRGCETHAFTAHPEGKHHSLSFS
Experiment: Jak3 Kinase Assay (HTRF, GST-Jak3 catalytic domain)
Type: biochemical
Conditions: 1 μM ATP, 60-min incubation, read-out: Jak 3 (Converted)
Protocol: Human Jak3 cDNA was amplified by PCR. A fragment encoding the catalytic domain of Jak3 (508aa to 1124aa) was ligated with GST at 5′ end. This fused GST-Jak3 DNA fragment was cloned into the EcoRI site of the donor plasmid pFastBac 1 (Life Technologies #10359-016). The transformation, transposition, and transfection of insect cells (Sf9) were performed according to the manufacture's instructions. The cell lysate containing recombinant GST-Jak3 was used in the kinase assay. Anti-GST antibody (10 μg/ml, Sigma #G1417) was coated onto a 384-well plate at 4° C. overnight. Cell lysate containing GST-Jak3 (1:100 dilution) was added to the anti-GST coated plates, and GST-Jak3 was captured by immobilized anti-GST antibody. Testing compounds and substrate mix (50 mM HEPES, pH 7, 0.5 mM Na3VO4, 25 mM MgCl2, 1 mM DTT, 0.005% BSA, 1 μM ATP, and 4.5 μg/ml biotinyl poly-Glu, Ala, Tyr) were added to the plate to initiate the reaction. After a 60-min incubation, the reaction was stopped by 4 mM EDTA, and phosphorylation of biotinyl poly-Glu, Ala, Tyr was detected using 17 μg/ml Cy5-streptavidin (Amersham, #PA92005) and 2.7 μg/ml Europium-conjugated anti-phosphotyrosine antibody (PerkinElmer #AD0069) using homogeneous time-resolved fluorescence (HTRF) technology.

Compound | IC50 [nM]
N#Cc1ccc2ncn(-c3ncc4nc(-c5cncnc5)n(C5CCOCC5)c4n3)c2c1 [Example 1] | < 100
Fc1ccc2ncn(-c3ncc4nc(-c5ccncc5)n(C5CCOCC5)c4n3)c2c1 [Example 32] | < 100
Cc1cccc(-c2nc3cnc(-n4cnc5ccc(C#N)cc54)nc3n2C2CCOCC2)c1 [Example 12] | 100 to 1000
Fc1ccc2ncn(-c3ncc4nc(-c5ccco5)n(C5CCOCC5)c4n3)c2c1 [Example 35] | < 100
CS(=O)(=O)Nc1cccc(-c2nc3cnc(-n4cnc5ccc(C#N)cc54)nc3n2C2CCOCC2)c1 [Example 14] | < 100
Fc1cccc2c1COC[C@H]2n1c(-c2ccccc2)nc2cnc(-n3cnc4ccccc43)nc21 [Example 87] | 100 to 1000
Fc1ccc2ncn(-c3ncc4nc(-c5cccnc5)n(C5CCOCC5)c4n3)c2c1 [Example 37] | < 100
Oc1cccc(-c2nc3cnc(-n4cnc5ccc(Cl)cc54)nc3n2C2CCOCC2)c1 [Example 40] | < 100
Fc1ccc2ncn(-c3ncc4nc(-c5cncnc5)n(C5CCOCC5)c4n3)c2c1 [Example 38] | < 100
Fc1ccc2ncn(-c3ncc4nc(-c5cccc(Br)c5)n(C5CCOCC5)c4n3)c2c1 [Example 57] | > 1000
Fc1ccc2ncn(-c3ncc4nc(Cl)n([C@@H]5CCOc6c(F)cccc65)c4n3)c2c1 [Example 102, 8-chloro-2-(6-fluoro-1H-benzo[d]imidazol-1-yl)-9-((R)-8-fluorochroman-4-yl)-9H-purine] | < 100
Fc1ccc2ncn(-c3ncc4c(n3)C([C@@H]3CCOc5ccccc53)C(CCl)=N4)c2c1 (stereo partly drawn) [Example 77] | < 100
Fc1ccc2ncn(-c3ncc4nc(-c5ccc(F)nc5)n(C5CCOCC5)c4n3)c2c1 [Example 46] | < 100
CSc1nc2cnc(-n3cnc4ccc(F)cc43)nc2n1[C@@H]1CCOc2c(F)cccc21 [Example 111] | < 100
CO[C@H]1CC[C@H](n2c(C)nc3cnc(-n4cnc5ccc(Cl)cc54)nc32)CC1 [Example 73] | 100 to 1000
Cc1nc2cnc(-n3cnc4ccc(C#N)cc43)nc2n1[C@@H]1CC[C@@H](O)c2ccccc21 [Example 100, 3-(9-((1R,4R)-4-Hydroxy-1,2,3,4-tetrahydronaphthalen-1-yl)-8-methyl-9H-purin-2-yl)-3H-benzo[d]imidazole-5-carbonitrile] | < 100
Cc1nc2cnc(-n3cnc4ccccc43)nc2n1[C@@H]1CCOc2c(F)cccc21 [Example 81, 2-(1H-benzo[d]imidazol-1-yl)-9-((R)-8-fluorochroman-4-yl)-8-methyl-9H-purine] | < 100
N#Cc1ccc2ncn(-c3ncc4nc(Nc5ccccc5F)n(C5CCOCC5)c4n3)c2c1 [Example 109] | < 100
CCc1nc2cnc(-n3cnc4ccc(F)cc43)nc2n1[C@@H]1CCOc2ccccc21 [Example 79] | < 100
N#Cc1ccc2ncn(-c3ncc4nc(-c5cncnc5)n([C@@H]5CCOc6ccccc65)c4n3)c2c1 [Example 11] | < 100

Compound | IC50 [nM]
[O-][n+]1ccc(-c2nc3cnc(-n4cnc5ccc(F)cc54)nc3n2C2CCOCC2)cc1 [Example 88] | 100 to 1000
COCCCn1c(-c2ccccc2)nc2cnc(-n3cnc4ccccc43)nc21 [Example 85] | > 1000
N#Cc1ccc2ncn(-c3ncc4nc(-c5ccccc5)n(C5CCOCC5)c4n3)c2c1 [Example 16] | < 100
Cc1ccc(-c2nc3cnc(-n4cnc5ccc(F)cc54)nc3n2C2CCOCC2)o1 [Example 52] | 100 to 1000
Fc1cccc2c1COCC2n1c(-c2ccccc2)nc2cnc(-n3cnc4ccccc43)nc21 (stereo not drawn) [Example 86, 2-(1H-benzo[d]imidazol-1-yl)-9-(8-fluoroisochroman-4-yl)-8-phenyl-9H-purine] | > 1000
N#Cc1ccc2ncn(-c3ncc4nc(NCC5CCCO5)n(C5CCOCC5)c4n3)c2c1 (stereo not drawn) [Example 93] | < 100
Cc1nc2cnc(-n3cnc4ccc(OC(F)(F)F)cc43)nc2n1[C@@H]1CCOc2c(F)cccc21 [Example 75] | 100 to 1000
Fc1ccc2ncn(-c3ncc4nc(-c5cccc(Cl)c5)n(C5CCOCC5)c4n3)c2c1 [Example 60] | 100 to 1000
Cc1nc2cnc(-n3cnc4ccc(F)cc43)nc2n1C1CCOCC1 [Example 72] | < 100
Fc1ccc(-c2nc3cnc(-n4cnc5ccc(F)cc54)nc3n2C2CCOCC2)nc1 [Example 68] | 100 to 1000
Fc1ccc2ncn(-c3ncc4nc(-c5cnc[nH]5)n(C5CCOCC5)c4n3)c2c1 [Example 30] | 100 to 1000
Cc1cccc(-c2nc3cnc(-n4cnc5ccc(F)cc54)nc3n2C2CCOCC2)n1 [Example 41] | > 1000
Cc1ccccc1-c1nc2cnc(-n3cnc4ccc(C#N)cc43)nc2n1C1CCOCC1 [Example 3] | 100 to 1000
Fc1ccc2ncn(-c3ncc4nc(-c5ccncc5)n([C@@H]5CCOc6c(F)cccc65)c4n3)c2c1 [Example 49] | < 100
Fc1ccc2ncn(-c3ncc4nc(-c5cccc(OC(F)(F)F)c5)n(C5CCOCC5)c4n3)c2c1 [Example 58] | > 1000
Cn1cncc1-c1nc2cnc(-n3cnc4ccc(F)cc43)nc2n1C1CCOCC1 [Example 39] | < 100
Fc1ccc2ncn(-c3ncc4nc(-c5ccc(Cl)nc5)n(C5CCOCC5)c4n3)c2c1 [Example 47] | < 100
Oc1ccccc1-c1nc2cnc(-n3cnc4ccc(F)cc43)nc2n1C1CCOCC1 [Example 44] | 100 to 1000
Nc1nccc(-c2nc3cnc(-n4cnc5ccc(F)cc54)nc3n2C2CCOCC2)n1 [Example 53] | < 100
Clc1ccc2ncn(-c3ncc4nc(-c5cncnc5)n(C5CCOCC5)c4n3)c2c1 [Example 65] | < 100

Compound | IC50 [nM]
Oc1cccc(-c2nc3cnc(-n4cnc5ccc(F)cc54)nc3n2[C@@H]2CCOc3c(F)cccc32)c1 [Example 28] | 100 to 1000
Cn1cccc1-c1nc2cnc(-n3cnc4ccc(F)cc43)nc2n1C1CCOCC1 [Example 50] | 100 to 1000
Oc1ccc(-c2nc3cnc(-n4cnc5ccc(F)cc54)nc3n2C2CCOCC2)cc1 [Example 54] | 100 to 1000
N#Cc1ccc2ncn(-c3ncc4nc(-c5cnc(O)nc5O)n(C5CCOCC5)c4n3)c2c1 [Example 10] | < 100
CCCc1nc2cnc(-n3cnc4ccc(C#N)cc43)nc2n1C1CCOc2ccc(F)cc21 (stereo not drawn) [Example 22] | < 100
COCCC(C)n1c(-c2c[nH]c3ccccc23)nc2cnc(-n3cnc4ccc(F)cc43)nc21 (stereo not drawn) [Example 27] | 100 to 1000
Fc1cccc(-c2nc3cnc(-n4cnc5ccc(F)cc54)nc3n2C2CCOCC2)c1 [Example 67] | 100 to 1000
N#Cc1ccc2ncn(-c3ncc4nc(-c5cccc(O)c5)n(C5CCOCC5)c4n3)c2c1 [Example 8] | < 100
Oc1cccc(-c2nc3cnc(-n4cnc5ccc(F)cc54)nc3n2C2CCOCC2)c1 [Example 71] | < 100
COC1CCN([C@H]2C(C)=Nc3cnc(-n4cnc5ccc(F)cc54)nc32)CC1 [Example 21] | 100 to 1000
CCNc1nc2cnc(-n3cnc4ccc(C#N)cc43)nc2n1[C@@H]1CCOc2ccccc21 [Example 97] | < 100
N#Cc1ccc2ncn(-c3ncc4nc(NCCN5CCCCC5)n(C5CCOCC5)c4n3)c2c1 [Example 94] | < 100
N#Cc1ccc2ncn(-c3ncc4nc(NCCN5CCOCC5)n(C5CCOCC5)c4n3)c2c1 [Example 95] | < 100
c1ccc(Cn2c(-c3ccccc3)nc3cnc(-n4cnc5ccccc54)nc32)cc1 [Example 89] | > 1000
CO[C@H]1CC[C@H](n2c(C)nc3cnc(-n4cnc5ccc(OC(F)(F)F)cc54)nc32)CC1 [Example 26] | 100 to 1000
Cc1nc2cnc(-n3cnc4ccc(C#N)cc43)nc2n1C1CCOc2ccc(F)cc21 (stereo not drawn) [Example 24] | < 100
Cc1nc2cnc(-n3cnc4ccc(F)cc43)nc2n1[C@@H]1CCOc2ccccc21 [Example 78] | < 100
Fc1ccc2ncn(-c3ncc4nc(-c5ccoc5)n(C5CCOCC5)c4n3)c2c1 [Example 70] | < 100
Cc1nc2cnc(-n3cnc4ccccc43)nc2n1Cc1ccccc1 [Example 82] | > 1000
COc1ccc(-c2nc3cnc(-n4cnc5ccc(C#N)cc54)nc3n2C2CCOCC2)cc1 [Example 19] | 100 to 1000
